The test addresses T1, Aurora-A122-403-C290A/C393A (Homo sapiens, UniProt O14965, C290A/C393A).
T1 construct: Human Aurora-A kinase domain 122-403 wild-type or C290A/ C393A mutant; His tag (pET30TEV vector) (N, cleaved yes); made in house; host or cells: E. coli RIL, co-expressed with lambda phosphatase (Aurora-A); tracer by solid phase synthesis
T1 sequence (O14965 122-403 C290A/C393A): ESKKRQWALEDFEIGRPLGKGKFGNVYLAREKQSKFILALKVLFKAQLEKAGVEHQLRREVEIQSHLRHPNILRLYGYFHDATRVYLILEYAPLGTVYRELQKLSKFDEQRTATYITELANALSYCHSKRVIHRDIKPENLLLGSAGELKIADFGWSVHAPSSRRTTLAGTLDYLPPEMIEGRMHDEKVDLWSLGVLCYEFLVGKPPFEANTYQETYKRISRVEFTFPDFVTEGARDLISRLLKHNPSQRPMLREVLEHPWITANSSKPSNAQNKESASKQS
The experiment in a line: Competition FA assay against FAM-Ahx-TACC3 522-536 tracer. The class given is binding. The note with it: for fold enhanced inhibitory potency (IC50) compared to the WT peptide: competition FA IC50 ratio vs WT. How it is done: Once completed, the mixtures were transferred into SPPS fritted reaction vessels and washed with H2O (5X, 10 mL, 2 min), DMF (5X, 5mL, 2 min) and DCM (5X, 5 mL, 2 min). The clean resins were dried under vacuum and the cyclic peptides cleaved from the resin following the general procedures described in previous sections. After Et2O precipitation, the crude materials were freeze-dried and redissolved in H2O/MeCN/TFA 90/10/0.1% v/v for preparative HPLC purification.
All disulfide peptide variants (ox) were produced in situ from their free-thiol solid precursors. For this, 2 mg of the pure peptide materials were dissolved in aqueous DMSO 33% v/v to a 10 mM concentration and were left open to air oxidation at room temperature overnight. […]
the peptides were employed for FA competition assays and IC50 evaluation without further additional […]
Fluorescence anisotropy (FA) assays – General information.
All assays were performed using 384-well plates(Greiner Bio-one, UK). […]
produced as described previously.11 All samples were prepared in 25 mM Tris,150 mM NaCl, 5 mM MgCl2, pH= 7.5, unless otherwise stated, and tested in triplicate using an EnVisionTM 2103 MultiLabel plate reader (PerkinElmer; Waltham, MA, USA).The parameters were set as follows: Excitation wavelength = 480 nm (30 nm bandwidth) and emission wavelength = 535 nm (30 nm bandwidth). Measured data were processed and analysed as previously described.12 Specifically, the perpendicular intensity (P) and parallel intensity (S) were subtracted by the control values and used for calculations of intensity and anisotropy using the following Equations 1, 2, 3, 4, and 5:
I= (2PG) + S Eq. (SI − 5)
r = (S − PG) Eq. (SI − 6)
L = r − r௠௜௡ Eq. (SI − 7)
y = (k + x + [FL]) − ඥ(k + x + [FL]2 − 4 ∗ x ∗ [FL]) Eq. (SI − 8)
y = r + r௠௜௡ − r௠௔௫ Eq. (SI − 9)
Where I = total intensity; P = perpendicular intensity; S = parallel intensity; G = instrument factor; r = anisotropy; Lb = ligand bound fraction; λ = change in intensity between bound and unbound states which […]
FA direct binding assays. […]
starting from 700 μM, diluted over 24 points in a 1/2 regime using the FAM-Ahx-labeled peptides at a final fixed concentration of 50 nM per well.
FA competition assays were performed using the same plates and buffer as described above, with the initial […]
14 points in a 1/2 regime. […]
after 4 h of incubation to enable appropriate sample equilibration. To prevent sample oxidation, when sulfhydryl peptides were analyzed DTT was added to the buffer (5 mM). In competition mode, the average anisotropy and the average standard deviation of the values derived from equation SI-6 were calculated and fit to a sigmoidal logistic model (equation SI-9) using Origin 2021. When using peptides for which full […]
For consistency, all the data […]
indicating the corresponding SD. […]

The mark [1] stands for this setting: as E1, Table S3 (mal): maleimide-constrained species, WT value is an individual replica control assay, mean ± SD, n = 3, SD, read-out: IC50 (mal).
[2] abbreviates: as E1, oxidised (disulfide) species made in situ from 10 mM stock in aqueous DMSO 33% v/v, air, overnight, WT control (+DMSO) given the same DMSO incubation, mean ± SD, n = 3, read-out: IC50 (ox).
Where [3] appears, read: as E1, free-sulfhydryl (reduced) species, DTT 5 mM in buffer, WT control (+DTT), mean ± SD, n = 3, read-out: IC50 (red).

Consider eleven molecules from paper PMC11604048, “Constrained TACC3 peptidomimetics for a non-canonical protein–protein interface elucidate allosteric communication in Aurora-A kinase” (Chemical Science, 2024).

Like-named read-outs stand apart in the source and are kept apart here. *1 amine or outer side, *2 acyl side, *3 side chain or, on linkers, in order; H or OH if unused. Where a SMILES comes first, the peptide text is derived from it. Bridges are numbered along the chain shown (N, C = ends). [ ]: non-standard residue; d: D form. Biphenyl(4,4'-CH2)2 = c1cc(-c2ccc(C[*:2])cc2)ccc1C[*:1]; Maleimide(3,4-diyl) = O=C1NC(=O)C([*:2])=C1[*:1]; Pro(trans-4-F) = O=C(O)[C@@H]1C[C@@H](F)CN1; Phe(4-Br) = N[C@@H](Cc1ccc(Br)cc1)C(=O)O

As to `CC(=O)N[C@@H](CC(C)C)C(=O)N[C@@H](CCC(=O)O)C(=O)N[C@H]1CSCc2ccc(cc2)-c2ccc(cc2)CSC[C@@H](C(=O)N[C@@H](CC(=O)O)C(=O)N2CCC[C@H]2C(=O)N[C@@H](C)C(=O)N[C@@H](CCC(=O)O)C(=O)N[C@H](C(=O)N[C@@H](CC(C)C)C(N)=O)C(C)C)NC(=O)[C@H](Cc2ccccc2)NC(=O)[C@H](CO)NC(=O)[C@H](CCC(=O)O)NC(=O)[C@H](CCC(=O)O)NC(=O)[C@H](CCCCN)NC1=O` [TACC3 518-532 L520C/R526C (Bph)] (Ac-LECKEESFCDPAEVL-NH2; linker 3-9 via Biphenyl(4,4'-CH2)2), the “fold enhanced inhibitory potency (IC50) compared to the WT peptide” value is reported as “up to 4 fold”. For `CC(=O)N[C@@H](CC(C)C)C(=O)N[C@@H](CCC(=O)O)C(=O)N[C@@H](CC(C)C)C(=O)N[C@@H](CCCCN)C(=O)N[C@@H](CCC(=O)O)C(=O)N[C@@H](CCC(=O)O)C(=O)N[C@H]1CSCc2ccc(cc2)-c2ccc(cc2)CSC[C@@H](C(=O)N[C@H](C(=O)N[C@@H](CC(C)C)C(N)=O)C(C)C)NC(=O)[C@H](C)NC(=O)[C@@H]2CCCN2C(=O)[C@H](CC(=O)O)NC(=O)[C@H](CCCNC(=N)N)NC(=O)[C@H](Cc2ccccc2)NC1=O` [TACC3 518-532 S524C/E530C (Bph)] (Ac-LELKEECFRDPACVL-NH2; linker 7-13 via Biphenyl(4,4'-CH2)2), the “fold enhanced inhibitory potency (IC50) compared to the WT peptide” value is reported as “up to 4 fold”. With `CC(=O)N[C@@H](CC(C)C)C(=O)N[C@@H](CCC(=O)O)C(=O)N[C@H]1CSCc2ccc(cc2)-c2ccc(cc2)CSC[C@@H](C(=O)N[C@@H](CC(=O)O)C(=O)N2C[C@H](F)C[C@H]2C(=O)N[C@@H](C)C(=O)N[C@@H](CCC(=O)O)C(=O)N[C@H](C(=O)N[C@@H](CC(C)C)C(N)=O)C(C)C)NC(=O)[C@H](Cc2ccc(Br)cc2)NC(=O)[C@H](CO)NC(=O)[C@H](CCC(=O)O)NC(=O)[C@H](CCC(=O)O)NC(=O)[C@H](CCCCN)NC1=O` [TACC3 518-532-L/R-Bph-BrF/fP] (Ac-LECKEES[Phe(4-Br)]CD[Pro(trans-4-F)]AEVL-NH2; linker 3-9 via Biphenyl(4,4'-CH2)2), the IC50 (SD, read-out: IC50) worked out at 22 ± 1 µM. `CC(=O)N[C@@H](CC(C)C)C(=O)N[C@@H](CCC(=O)O)C(=O)N[C@@H](CC(C)C)C(=O)N[C@@H](CCCCN)C(=O)N[C@@H](CCC(=O)O)C(=O)N[C@@H](CCC(=O)O)C(=O)N[C@H]1CSCc2ccc(cc2)-c2ccc(cc2)CSC[C@@H](C(=O)N[C@H](C(=O)N[C@@H](CC(C)C)C(N)=O)C(C)C)NC(=O)[C@H](C)NC(=O)[C@@H]2C[C@@H](F)CN2C(=O)[C@H](CC(=O)O)NC(=O)[C@H](CCCNC(=N)N)NC(=O)[C@H](Cc2ccc(Br)cc2)NC1=O` [TACC3 518-532-S/E-Bph-BrF/fP] (Ac-LELKEEC[Phe(4-Br)]RD[Pro(trans-4-F)]ACVL-NH2; linker 7-13 via Biphenyl(4,4'-CH2)2): the IC50 (SD, read-out: IC50) is 16 ± 1 µM. Regarding `CC(=O)N[C@@H](CCC(=O)O)C(=O)N[C@@H](CCC(=O)O)C(=O)N[C@@H](CO)C(=O)N[C@@H](Cc1ccccc1)C(=O)N[C@@H](CCCNC(=N)N)C(=O)N[C@@H](CC(=O)O)C(=O)N1CCC[C@H]1C(=O)N[C@H]1CSC2=C(SC[C@@H](C(=O)NCC(=O)N[C@H](C(=O)NCC(=O)N[C@@H](C)C(N)=O)[C@@H](C)O)NC(=O)[C@H](C(C)C)NC(=O)[C@H](CCC(=O)O)NC1=O)C(=O)NC2=O` [TACC3 522-536 A529C/L532C (mal)] (Ac-EESFRDPCEVCGTGA-NH2; linker 8-11 via Maleimide(3,4-diyl)), the IC50 under setting [1] is 483 ± 58 µM. On to `CC(=O)N[C@@H](CCC(=O)O)C(=O)N[C@@H](CCC(=O)O)C(=O)N[C@@H](CO)C(=O)N[C@@H](Cc1ccccc1)C(=O)N[C@@H](CCCNC(=N)N)C(=O)N[C@@H](CC(=O)O)C(=O)N1CCC[C@H]1C(=O)N[C@H]1CSSC[C@@H](C(=O)NCC(=O)N[C@H](C(=O)NCC(=O)N[C@@H](C)C(N)=O)[C@@H](C)O)NC(=O)[C@H](C(C)C)NC(=O)[C@H](CCC(=O)O)NC1=O` [TACC3 522-536 A529C/L532C (ox)] (Ac-EESFRDPCEVCGTGA-NH2; disulfide 8-11), for which the IC50 under setting [2] is not below 500 µM. Turning to `CC(=O)N[C@@H](CCC(=O)O)C(=O)N[C@@H](CCC(=O)O)C(=O)N[C@@H](CO)C(=O)N[C@@H](Cc1ccccc1)C(=O)N[C@@H](CCCNC(=N)N)C(=O)N[C@@H](CC(=O)O)C(=O)N1CCC[C@H]1C(=O)N[C@@H](CS)C(=O)N[C@@H](CCC(=O)O)C(=O)N[C@H](C(=O)N[C@@H](CS)C(=O)NCC(=O)N[C@H](C(=O)NCC(=O)N[C@@H](C)C(N)=O)[C@@H](C)O)C(C)C` [TACC3 522-536 A529C/L532C (red)] (Ac-EESFRDPCEVCGTGA-NH2), under setting [3], the concentration for half-maximal inhibition (IC50) was not below 500 µM. Regarding `CC(=O)N[C@@H](CCC(=O)O)C(=O)N[C@@H](CCC(=O)O)C(=O)N[C@@H](CO)C(=O)N[C@@H](Cc1ccccc1)C(=O)N[C@@H](CCCNC(=N)N)C(=O)N[C@H]1CSC2=C(SC[C@@H](C(=O)N[C@H](C(=O)N[C@@H](CC(C)C)C(=O)NCC(=O)N[C@H](C(=O)NCC(=O)N[C@@H](C)C(N)=O)[C@@H](C)O)C(C)C)NC(=O)[C@H](C)NC(=O)[C@@H]3CCCN3C1=O)C(=O)NC2=O` [TACC3 522-536 D527C/E530C (mal)] (Ac-EESFRCPACVLGTGA-NH2; linker 6-9 via Maleimide(3,4-diyl)), the IC50 under setting [1] worked out at 186 ± 50 µM.

As to `CC(=O)N[C@@H](CCC(=O)O)C(=O)N[C@@H](CCC(=O)O)C(=O)N[C@@H](CO)C(=O)N[C@@H](Cc1ccccc1)C(=O)N[C@@H](CCCNC(=N)N)C(=O)N[C@H]1CSSC[C@@H](C(=O)N[C@H](C(=O)N[C@@H](CC(C)C)C(=O)NCC(=O)N[C@H](C(=O)NCC(=O)N[C@@H](C)C(N)=O)[C@@H](C)O)C(C)C)NC(=O)[C@H](C)NC(=O)[C@@H]2CCCN2C1=O` [TACC3 522-536 D527C/E530C (ox)] (Ac-EESFRCPACVLGTGA-NH2; disulfide 6-9), the IC50 under setting [2] is not below 500 µM. On to `CC(=O)N[C@@H](CCC(=O)O)C(=O)N[C@@H](CCC(=O)O)C(=O)N[C@@H](CO)C(=O)N[C@@H](Cc1ccccc1)C(=O)N[C@@H](CCCNC(=N)N)C(=O)N[C@@H](CS)C(=O)N1CCC[C@H]1C(=O)N[C@@H](C)C(=O)N[C@@H](CS)C(=O)N[C@H](C(=O)N[C@@H](CC(C)C)C(=O)NCC(=O)N[C@H](C(=O)NCC(=O)N[C@@H](C)C(N)=O)[C@@H](C)O)C(C)C` [TACC3 522-536 D527C/E530C (red)] (Ac-EESFRCPACVLGTGA-NH2), for which the IC50 under setting [3] is not below 500 µM. `CC(=O)N[C@H]1CSCc2ccc(cc2)-c2ccc(cc2)CSC[C@@H](C(=O)N[C@@H](C)C(=O)N[C@@H](CCC(=O)O)C(=O)N[C@H](C(=O)N[C@@H](CC(C)C)C(=O)NCC(=O)N[C@H](C(=O)NCC(=O)N[C@@H](C)C(N)=O)[C@@H](C)O)C(C)C)NC(=O)[C@H](CC(=O)O)NC(=O)[C@H](CCCNC(=N)N)NC(=O)[C@H](Cc2ccccc2)NC(=O)[C@H](CO)NC(=O)[C@H](CCC(=O)O)NC1=O` [TACC3 522-536 E522C/P528C (Bph)] (Ac-CESFRDCAEVLGTGA-NH2; linker 1-7 via Biphenyl(4,4'-CH2)2): the IC50 (as E1, Table S3 column (Bph): biphenyl-constrained species, WT value is an individual replica control assay, mean ± SD, n = 3, SD, read-out: IC50 (Bph)) turned out to be 280 ± 32 µM.
